Source: patent US6440957B1, “Cephalosporines having cyclic aminoguanidine substituents as antibiotics” (Biochemie Gesellschaft m.b.H., priority 1998, dated 2002)
In brackets after ≈: the same amount, converted by molar mass.

Key:
Assay in all cases: Agar Dilution Test (NCCLS), MIC
Type in all cases: cell-based
[1] = system: Klebsiella edwardsii, strain ATCC 10896; conditions: ATCC10896, Example 48 tested in form of the hydrochloride
Excerpt: (§1) In particular, the active compounds of the invention show antimicrobial, e.g. antibacterial, activity against e.g. gram negative and gram positive bacteria, e.g. […] bacteria such as Pseudomonas, e.g. Pseudomonas aeruginosa; Escherichia, e.g. Escherichia coli; Enterobacter, e.g. Enterobacter cloacae; Klebsiella, e.g. Klebsiella edwardsii, Klebsiella pneumoniae; Enterococcus, e.g. Enterococcus faecalis; Moraxella, e.g. Moraxell catarrhalis; Streptococcus, e.g. Streptococcus pneumoniae, Streptococcus pyogenes; and Staphylococcus, e.g. Staphylococcus aureus; in vitro in the Agar Dilution Test according to National Commitee for Clinical Laboratory Standards (NCCLS) 1993, Document M7-A3Vol.13, No. 25: “Methods for dilution Antimicrobial Susceptibility Tests for Bacteria that Grow Aerobically—Third Edition, Approved Standard”. […] The active compounds of the invention show an surprising overall activity spectrum.

[2] = system: Enterobacter cloacae strains
Excerpt: as §1

[3] = system: E. coli strain ATCC 10536; conditions: Escherichia coli, ATCC10536
Excerpt: as §1

[4] = system: E. coli strain ATCC 35218; conditions: Escherichia coli, ATCC35218
Excerpt: as §1

CCN1CCN(N=CC2=C(C(=O)O)N3C(=O)C(NC(=O)/C(=N\OCF)c4nsc(N)n4)[C@H]3SC2)C1=NC (some centres unmarked) [Example 48, 7-{[(5-amino-1,2,4-thiadiazole-3-yl)-(Z)-(fluoromethoxyimino)-acetyl]amino}-3-{[(3-ethyl-2-methylimino-imidazolidine-1-yl)imino]methyl}-3-cephem-4-carboxylic acid]
MIC [1]: ~0.8 µg/mL (≈ 1.44 µM) | MIC [2]: < 0.0125 µg/mL | MIC [3]: < 0.0125 µg/mL | MIC [4]: < 0.0125 µg/mL

CC(C)(O/N=C(\C(=O)N[C@@H]1C(=O)N2C(C(=O)[O-])=C(C[n+]3ccccc3)CS[C@H]12)c1csc(N)n1)C(=O)O [ceftazidime, reference compound]
MIC [1]: ~1.6 µg/mL (≈ 2.93 µM)
